Columns and labels:
[1] = Drug uptake in human SY-cells xenografted mouse tumor at 20 MBq, iv after 50 to 60 mins by positron emission tomography; type: ADME, organism-based, Neoplasm; conditions: in vivo
[2] = Drug uptake in human SY-cells xenografted mouse tumor at 200 kBq, iv after 15 to 25 mins by positron emission tomography; type: ADME, organism-based, Neoplasm; conditions: in vivo

Drug uptake [1]	Drug uptake [2]	SMILES
Active		CC([11CH3])(N)C(=O)O (stereo not drawn)
Active		[11CH3]SCC[C@H](N)C(=O)O
	Active	OC[C@H]1O[C@@H](O)[C@H]([18F])[C@@H](O)[C@@H]1O [FLUDEOXYGLUCOSE-F18]
